Reference: US10906894B2, “Compounds containing benzo[d][1,3]oxathiole, benzo[d][1,3]oxathiole 3-oxide or benzo[d][1,3]oxathiole 3,3-dioxide and methods/uses thereof as agonists of g protein-coupled receptor 119” (PRAMANA PHARMACEUTICALS INC., priority 2016, dated 2021)
Like-named read-outs stand apart in the source and are kept apart here.

Biological target: T1, GPR119 (Homo sapiens, UniProt Q8TDV5)
T1 sequence (Q8TDV5 1-335): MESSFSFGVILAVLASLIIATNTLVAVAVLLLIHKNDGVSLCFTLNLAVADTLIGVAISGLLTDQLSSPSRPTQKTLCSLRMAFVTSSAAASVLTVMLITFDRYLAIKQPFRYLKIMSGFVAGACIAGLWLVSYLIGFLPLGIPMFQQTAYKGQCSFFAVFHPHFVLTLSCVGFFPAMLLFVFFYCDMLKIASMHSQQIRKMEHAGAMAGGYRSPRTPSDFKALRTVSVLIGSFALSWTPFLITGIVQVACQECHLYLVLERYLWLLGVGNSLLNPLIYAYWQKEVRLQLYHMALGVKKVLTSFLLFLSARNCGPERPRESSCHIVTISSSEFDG
Test: LANCE Ultra cAMP assay: stimulation of GPR119-mediated cAMP production in CHO cells stably expressing human GPR119 receptor
Format: cell-based
Settings: for Emax: CHO, read-out: % cAMP Max. relative to forscolin
Method: The potency of GPR119 receptor agonists was assessed by measuring the stimulation of GPR119-mediated cAMP production with LANCE Ultra cAMP assay (Perkin Elmer, TRF0264) in CHO cells stably expressing human GPR119 receptor (Chantest, cat. #A633). CHO-GPR119 cells were cultured in DMEM/F12 medium supplemented with 10% FBS and 1% NEAA at 37° C., 5% CO2, aliquoted and frozen in liquid nitrogen.
(§1) For assay, cells were thawed in a water bath at 37° C., washed in Hank's Balanced Salt Solution (HBSS) and resuspended in Stimulation Buffer 1 (SB1) for 30 min: 5 mM HEPES, pH 7.2-7.4, 0.1% BSA in HBSS. […] The ULight-anti-cAMP antibody (Perkin Elmer, TRF0264) was added to the cell suspension making Mix [Cell suspension/4× ULight-anti-cAMP antibodies]. […] The assay plate was centrifuged 200 g, 5 sec.
Serial dilution (100×) of tested compounds were prepared in DMSO in the range of from 30 nM to 1 mM with half-log step in 384-well plates (Greiner, 781280) using Biomek 2000. 10 test concentrations in two repeats were prepared for each CRC. […] The assay plate was incubated 30 minutes at room temperature on a shaker, 250 rpm to allow GPR119 receptor stimulation. The cAMP level was determined according to the standard kit supplier protocol (PerkinElmer, cat. #TRF0264).
(§2) The stock solution of the Eu-cAMP tracer (Perkin Elmer, TRF0264) was diluted 1:100 in cAMP Detection Buffer (Perkin Elmer, TRF0264), making 2× working concentration and added to the assay plate, 10 μL per well. Assay plate was centrifuged 180 g, 1 sec. Then the assay plate was incubated for 60′ at room temperature on shaker, 250 rpm to allow cAMP detection. The TR-FRET signal was measured at Ex-340 nm/Em-615 and Ex-340 nm/Em-665 nm on the reader Tecan M1000. 0% of cAMP stimulation corresponds to the cells with DMSO only, 100% of cAMP stimulation corresponds to the cells with 10 uM Forskolin. The EC50 value defined as the concentration of the drug that gives half-maximal response, were calculated using GraphPad Prizm 5.0 software with forskolin was used as references at each test. Entries 1-17 in Table A-2 show the biological activity of certain representative compounds using the protocol as described above.
as §1, with “cell suspension,” for “cell suspension”
as §2, with “1-14” for “1-17”, “B-2” for “A-2”

[1] = Table A-2 entries 1-17, protocol as described, 100% = 10 uM Forskolin
[2] = Table A-2 entries 1-17, protocol as described (800 000 cells/mL, 5 uL/well), CHO-GPR119 cells
[3] = Table A-2 entries 18-25, modified protocol, 500 cells/well
[4] = Table B-2 entries 1-14, protocol as described (800 000 cells/mL, 5 uL/well), CHO-GPR119 cells

SMILES | Emax [1] [%] | EC50 [2] [nM] | Emax [3] [%] | EC50 [3] [nM] | EC50 [4] [nM]
CC(C)(C)N1CCC(COc2ccc(-c3ccc4c(c3)OCS4(=O)=O)cc2F)CC1 [A-13] | 75 | 833 | – | – | –
CN(C)C(=O)N1CCC(COc2ccc(-c3ccc4c(c3)OCS4(=O)=O)cc2F)CC1 [A-14] | 77 | 86.4 | – | – | –
CC(C)(C)C(=O)N1CCC(COc2ccc(-c3ccc4c(c3)OCS4(=O)=O)cc2F)CC1 [A-15] | 80 | 61.7 | – | – | –
NCC(=O)N1CCC(COc2ccc(-c3ccc4c(c3)OCS4(=O)=O)cc2F)CC1 [A-17] | 67 | ≥ 10000 | – | – | –
CC(C)[C@H](N)C(=O)N1CCC(COc2ccc(-c3ccc4c(c3)OCS4(=O)=O)cc2F)CC1 [A-19] | 65 | 4080 | – | – | –
NC(=O)N1CCC(COc2ccc(-c3ccc4c(c3)OCS4(=O)=O)cc2F)CC1 [A-20] | 70 | ≥ 10000 | – | – | –
CC(C)C(=O)N1CCC(COc2ccc(-c3ccc4c(c3)OCS4(=O)=O)cc2F)CC1 [A-21] | 77 | 37 | – | – | –
CCc1cnc(N2CCC(COc3ccc(-c4ccc5c(c4)OCS5(=O)=O)cc3F)CC2)nc1 [A-24] | 77 | 2.5 | – | – | –
O=S1(=O)COc2cc(-c3cnc(OCC4CCN(c5ncc(Cl)cn5)CC4)nc3)ccc21 [A-29, 6-(2-((1-(5-Chloropyrimidin-2-yl)piperidin-4-yl)methoxy)pyrimidin-5-yl)-2H-benzo[d][1,3]oxathiole 3,3-dioxide] | 80 | 33.1 | – | – | –
O=S1(=O)COc2ccc(-c3ccc(OCC4CCN(c5ncc(Cl)cn5)CC4)c(F)c3)cc21 [A-40] | 65 | 369 | – | – | –
O=S1(=O)COc2cc(-c3ccc(OCC4CCN(c5ncncn5)CC4)c(F)c3)ccc21 [A-42, 6-(4-((1-(1,3,5-Triazin-2-yl)piperidin-4-yl)methoxy)-3-fluorophenyl)-2H-benzo[d][1,3]oxathiole 3,3-dioxide] | 75 | 102 | – | – | –
O=S1(=O)COc2cc(-c3ccc(OCC4CN(c5ncc(Cl)cn5)C4)c(F)c3)ccc21 [A-48, 6-(4-((1-(5-Chloropyrimidin-2-yl)azetidin-3-yl)methoxy)-3-fluorophenyl)-2H-benzo[d][1,3]oxathiole 3,3-dioxide] | 80 | 67 | – | – | –
CC(C)c1noc(N2CC(COc3ccc(-c4ccc5c(c4)OCS5(=O)=O)cc3F)C2)n1 [A-52, 6-(3-Fluoro-4-((1-(3-isopropyl-1,2,4-oxadiazol-5-yl)azetidin-3-yl)methoxy)phenyl)-2H-benzo[d][1,3]oxathiole 3,3-dioxide] | 81 | 24 | – | – | –
O=S1(=O)COc2cc(-c3ccc(OCc4cnc(C5CCN(c6ncc(Cl)cn6)CC5)s4)c(F)c3)ccc21 [Example A-58, 6-(4-((2-(1-(5-Chloropyrimidin-2-yl)piperidin-4-yl)thiazol-5-yl)methoxy)-3-fluorophenyl)-2H-benzo[d][1,3]oxathiole-3,3-dioxide] | 73 | 96 | – | – | –
CC(C)c1noc(N2CCC(COc3ccc(-c4ccc5c(c4)OCS5(=O)=O)cc3F)CC2)n1 [Example A-59, 6-(3-Fluoro-4-((1-(3-isopropyl-1,2,4-oxadiazol-5-yl)piperidin-4-yl)methoxy)phenyl)-2H-benzo[d][1,3]oxathiole 3,3-dioxide] | 77 | 5.4 | – | – | –
O=S1(=O)COc2cc(-c3ccc(N4CCN(c5ncc(Cl)cn5)CC4)c(F)c3)ccc21 [Example A-65, 6-(4-(5-Chloropyrimidin-2-yl)piperazin-1-yl)-3-fluorophenyl-2H-benzo[d][1,3]oxathiole 3,3-dioxide] | 84 | 112 | – | – | –
CC(C)c1cnc(N2CCC(COc3ccc(-c4ccc5c(c4)OCS5(=O)=O)cc3F)CC2)nc1 [Example A-66, 6-(3-Fluoro-4-(1-(5-isopropylpyrimidin-2-yl)piperidin-4-yl)methoxy)phenyl-2H-benzo[d][1,3]oxathiole 3,3-dioxide] | – | – | 80 | 19.1 | –
COc1cnc(N2CCC(COc3ccc(-c4ccc5c(c4)OCS5(=O)=O)cc3F)CC2)nc1 [Example A-67, 6-(3-Fluoro-4-(1-(5-methoxypyrimidin-2-yl)piperidin-4-yl)methoxy)phenyl-2H-benzo[d][1,3]oxathiole 3,3-dioxide] | – | – | 72 | 21.4 | –
CCc1cnc(N2CCC[C@@H]2COc2ccc(-c3ccc4c(c3)OCS4(=O)=O)cc2F)nc1 [Example A-71] | – | – | 51 | 1690 | –
CCc1cnc(N2CCC(COc3cnc(-c4ccc5c(c4)OCS5(=O)=O)nc3)CC2)nc1 [Example A-76, 6-(5-((1-(5-Ethylpyrimidin-2-yl)piperidin-4-yl)methoxy)pyrimidin-2-yl)-2H-benzo[d][1,3]oxathiole 3,3-dioxide] | – | – | 87 | 8.2 | –
CCc1cnc(N2CCC[C@H]2COc2ccc(-c3ccc4c(c3)OCS4(=O)=O)cc2F)nc1 [Example A-80] | – | – | 25 | 1310 | –
CCc1cnc(N2CC[C@H](COc3ccc(-c4ccc5c(c4)OCS5(=O)=O)cc3F)C2)nc1 [Example A-86, (S)-6-(4-((1-(5-Ethylpyrimidin-2-yl)pyrrolidin-3-yl)methoxy)-3-fluorophenyl)-2H-benzo[d][1,3]oxathiole 3,3-dioxide] | – | – | 96 | 166 | –
O=S1(=O)COc2cc(-c3ccc(OC[C@H]4CCN(c5ncc(Cl)cn5)C4)c(F)c3)ccc21 [Example A-89, (S)-6-(4-((1-(5-Chloropyrimidin-2-yl)pyrrolidin-3-yl)methoxy)-3-fluorophenyl)-2H-benzo[d][1,3]oxathiole 3,3-dioxide] | – | – | 93 | 46 | –
CCc1ccnc(N2CC[C@H](COc3ccc(-c4ccc5c(c4)OCS5(=O)=O)cc3F)C2)n1 [Example A-92, (S)-6-(4-((1-(4-Ethylpyrimidin-2-yl)pyrrolidin-3-yl)methoxy)-3-fluorophenyl)-2H-benzo[d][1,3]oxathiole 3,3-dioxide] | – | – | 90 | 58 | –
Fc1cc(-c2ccc3c(c2)OCS3)ccc1OCC1CCN(c2ncc(Cl)cn2)CC1 [Example B-12] | – | – | – | – | 280
[O-][S+]1COc2cc(-c3ccc(OCC4CCN(c5ncc(Cl)cn5)CC4)c(F)c3)ccc21 (stereo not shown) [Example B-16, 6-(4-((1-(5-Chloropyrimidin-2-yl)piperidin-4-yl)methoxy)-3-fluorophenyl)-2H-benzo[d][1,3]oxathiole 3-oxide] | – | – | – | – | 2.3
CC(C)(C)OC(=O)N1CCC(COc2ccc(-c3ccc4c(c3)OC[S+]4[O-])cc2F)CC1 (stereo not shown) [Example B-17, tert-Butyl 4-((2-fluoro-4-(3-oxido-1,3-benzoxathiol-6-yl)phenoxy)methyl) piperidine-1-carboxylate] | – | – | – | – | > 100
[O-][S+]1COc2cc(-c3ccc(OCC4CCNCC4)c(F)c3)ccc21 (stereo not shown) [Example B-18] | – | – | – | – | > 500
